These are literature values, as cited in patent publication US20060100182A1, “Pharmaceutical compositions for the treatment of urinary incontinence” (priority 2002, published 2006).

Counter-ions that a name gives are not always drawn.

`CCN(CC)CC#CCOC(=O)C(O)(c1ccccc1)C1CCCCC1` (stereo not drawn) [oxybutynin, 4-(diethylamino)-2-butynyl acetate ∝-cyclohexyl ∝-hydroxyphenyl hydrochloride]: the systemic bioavailability (oral route, hepatic first-pass effect) is recorded as about 6%. Besides, the maximum plasmatic levels (oral route, recommended doses, 5 mg tablets) is 8 to 18 ng/mL. The elimination half-life (statutory information DITROPAN, Vidal 2001) was 2 h.
